{"source": "patent US20110130346A1", "about": "“PEPTIDE CONJUGATES FOR DELVERY OF BIOLOGICALLY ACTIVE COMPOUNDS” (ISIS INNOVATION LIMITED, priority 2008, published 2011)", "key": {"[1]": {"system": "exon and intron 23 of the dystrophin gene", "test": "Example 3: intramuscular glucose-formulated AOs, RT-PCR of exon skipping", "format": "in vivo, mdx mice", "protocol": "Total RNA was extracted from skeletal muscle and heart tissue with Trizol (Invitrogen, UK) and 200 ng of RNA template was used for 20 μl RT-PCR with OneStep RT-PCR kit (Qiagen, UK). The primer sequences for the initial RT-PCR were Exon20Fo 5′-[…]-3′ and Ex26Ro 5′-[…]-3′ for amplification of messenger RNA from exons 20 to 26. The cycle conditions were 95° C. for 30 seconds, 55° C. for 1 minute and 72° C. for 2 minutes for 25 cycles. RT-PCR product (1 μl) was then used as the template for secondary PCR performed in 25 μl with 0.5 U Taq DNA polymerase (Invitrogen, UK). The primer sequences for the second round were Ex20Fi 5′-[…]-3′ and Ex24Ri 5′-[…]-3. The cycle conditions were 95° C. for 1 minute, 57° C. for 1 minute, and 72° C. for 2 min for 25 cycles. The products were examined by electrophoresis on a 2% agarose gel.\nFor intramuscular studies the TA muscle of each experimental mdx mouse was injected with a 40 μl dose of PNA and PNA-peptide conjugates with saline at a final concentration of 125 μg/ml, and the contralateral muscle was injected with saline. For systemic intravenous injections, X μg PNA or PNA-peptide conjugates in 80 μl saline buffer were injected into tail vein of mdx mice at the final dose of 25 mg/kg and 6 mg/kg, respectively. […]"}, "[2]": {"system": "exon and intron 23 of the dystrophin gene", "test": "Example 3: intramuscular injection of glucose-formulated AOs, dystrophin-positive myofibres by immunohistochemistry", "format": "in vivo", "details": "intramuscular into TA, 8 week old mdx mice, two weeks", "protocol": "Here we study a novel delivery glucose formulation by evaluating it via local intramuscular injection into the mdx mouse tibialis anterior (TA) muscle. Initial experiments were performed in 6-8 week old mdx mice (referred to as 8 weeks) by treatment with a single dose of 5 ug of 2′OMePS AO formulated in 5% glucose. In a parallel control study, age-matched control mdx mice were treated with the same AO dose formulated in standard saline buffer.\nFor intramuscular studies the TA muscle of each experimental mdx mouse was injected with a 40 μl dose of PNA and PNA-peptide conjugates with saline at a final concentration of 125 μg/ml, and the contralateral muscle was injected with saline. […]\n(§1) Sections of 8 μm were cut from at least two-thirds of the muscle length of TA, quadriceps, gastrocnemius, biceps, abdominal wall and diaphragm muscles and cardiac muscle at 100 μm intervals. […] The maximum number of dystrophin-positive fibres in one section was counted using the Zeiss AxioVision fluorescence microscope. […] Polyclonal antibodies were detected by goat-anti-rabbit IgGs Alexa Fluro 594 (Molecular Probe, UK). […] Polyclonal antibodies were detected by goat-anti-rabbit IgGs Alexa 594 and the monoclonal antibodies by goat-anti-mouse IgGs Alexa 594 (Molecular Probe, UK). […]"}, "[3]": {"system": "exon and intron 23 of the dystrophin gene", "test": "Example 3: intravenous glucose-formulated AOs, dystrophin immunohistochemistry", "format": "in vivo, mdx mice", "details": "single intravenous dose of 25 mg/kg", "from_the_text": "(§2) Given the dramatic enhancement in AO uptake and exon skipping activity and dystrophin restoration observed following intramuscular delivery of glucose-formulated AO we wished to study whether or not such enhancement could also facilitate improved systemic AO delivery and splice correcting activity. Initially we chose to study whether or not systemic PMO AO delivery was enhanced following glucose formulation. We compared PMO formulated in saline with PMO formulated in either 5% glucose or formulated in glucose at a final concentration of 4.5% and delivered these via a single intravenous dose of 25 mg/kg in mdx mice.\nWe further studied the intravenous enhancing effects by investigating the effects on a peptide conjugated PMO compound using a well characterised arginine-rich peptide (RXR)4. […]\nas §1"}, "[4]": {"system": "exon and intron 23 of the dystrophin gene", "test": "Example 3: intramuscular glucose-formulated AOs, Western blot of dystrophin", "format": "in vivo, mdx mice", "protocol": "For intramuscular studies the TA muscle of each experimental mdx mouse was injected with a 40 μl dose of PNA and PNA-peptide conjugates with saline at a final concentration of 125 μg/ml, and the contralateral muscle was injected with saline. For systemic intravenous injections, X μg PNA or PNA-peptide conjugates in 80 μl saline buffer were injected into tail vein of mdx mice at the final dose of 25 mg/kg and 6 mg/kg, respectively. The animals were killed at various time points after injection by CO2 inhalation and tissues were removed and snap-frozen in liquid nitrogen-cooled isopentane and stored at −80° C.\nThe collected sections were placed in a 1.5 ml polypropylene eppendorf tube (Anachem, UK) on dry ice. […] The supernatant was collected and the protein concentration was quantified by Bradford assay (Sigma, UK). […] The bound primary antibody was detected by horseradish peroxidise-conjugated rabbit anti-mouse IgGs and the ECL Western Blotting Analysis system (Amersham Pharmacia Biosciences, UK). The intensity of the bands obtained from treated mdx muscles was measured by Image J software; the quantification is based on band intensity and area, and is compared with that from normal muscles of C57BL6 mice."}, "[5]": {"system": "exon and intron 23 of the dystrophin gene", "test": "Example 3: intravenous glucose-formulated AOs, RT-PCR of splice correction", "format": "in vivo, mdx mice", "details": "single intravenous dose of 25 mg/kg, various muscle groups", "from_the_text": "as §2\nWe further studied the intravenous enhancing effects by investigating the effects on a peptide conjugated PMO compound using a well characterised arginine-rich peptide (RXR)4.\nTotal RNA was extracted from skeletal muscle and heart tissue with Trizol (Invitrogen, UK) and 200 ng of RNA template was used for 20 μl RT-PCR with OneStep RT-PCR kit (Qiagen, UK). The primer sequences for the initial RT-PCR were Exon20Fo 5′-[…]-3′ and Ex26Ro 5′-[…]-3′ for amplification of messenger RNA from exons 20 to 26. The cycle conditions were 95° C. for 30 seconds, 55° C. for 1 minute and 72° C. for 2 minutes for 25 cycles. RT-PCR product (1 μl) was then used as the template for secondary PCR performed in 25 μl with 0.5 U Taq DNA polymerase (Invitrogen, UK). […]"}}}
{"substance": "5′-GGCCAAACCTCGGCTTACCTGAAAT-3′ (morpholino backbone, further chemistry not given here) [PMO, neutrally charged PMO AO, M23D, 25 mer]", "values": [{"measurement": "exon skipping activity at the RNA level, glucose versus saline formulation", "setting": "[1]", "result": "enhanced exon skipping activity"}, {"measurement": "dystrophin-positive myofibres, 5% glucose formulation compared with saline formulation", "setting": "[2]", "result": "no significant difference"}, {"measurement": "corrected dystrophin-positive fibres, glucose (5% or 4.5%) versus saline formulation", "setting": "[3]", "result": "significant enhancements"}, {"measurement": "dystrophin protein expression on Western blot, glucose versus saline formulation", "setting": "[4]", "result": "increased dystrophin protein expression"}, {"measurement": "dystrophin splice correction at the RNA level, glucose versus saline formulation", "setting": "[5]", "result": "enhanced dystrophin splice correction"}]}
